Article PMC10175095 (Therapeutic drug monitoring, 2023)

Key:
[1] = Reinjection stability in final extract; format: physicochemical; conditions: reinjected, 4°C, autosampler, 25.95 h
[2] = Long-term stability of unprocessed plasma samples at −80°C; format: in vitro ADME; conditions: human plasma
[3] = Pre-processed stability in human plasma; format: in vitro ADME; conditions: 2.5 h
[4] = requires confirmation in prospective studies; cited from earlier work
[5] = Freeze-thaw stability of unprocessed plasma samples; format: in vitro ADME; conditions: human plasma, 3 freeze (-80°C)-thaw cycles
[6] = Processed sample stability in final extract; format: physicochemical; conditions: 4°C, autosampler, 25.1 h
[7] = RT (20–25°C), yellow light, nominal 15 ng/mL
[8] = RT (20–25°C), yellow light, nominal 1500 ng/mL

CCN1CCN(Cc2ccc(Nc3ncc(F)c(-c4cc(F)c5nc(C)n(C(C)C)c5c4)n3)nc2)CC1 [Abemaciclib, abemaciclib]
Accuracy vs fresh QCs ([1]; nominal 15 ng/mL): 98.2% | Mean measured concentration ([1]; nominal 15 ng/mL): 16.4 ng/mL | Accuracy vs fresh QCs ([1]; nominal 150 ng/mL): 98.7% | Mean measured concentration ([1]; nominal 150 ng/mL): 155 ng/mL | Accuracy vs fresh QCs ([1]; nominal 1500 ng/mL): 103% | Mean measured concentration ([1]; nominal 1500 ng/mL): 1527 ng/mL | Accuracy vs fresh QCs ([2]; 3 months, nominal 15 ng/mL): 98.6% | Mean measured concentration ([2]; 3 months, nominal 15 ng/mL): 14.7 ng/mL | Accuracy vs fresh QCs ([2]; 3 months, nominal 150 ng/mL): 95.5% | Mean measured concentration ([2]; 3 months, nominal 150 ng/mL): 149 ng/mL | Accuracy vs fresh QCs ([2]; 3 months, nominal 1500 ng/mL): 95.6% | Mean measured concentration ([2]; 3 months, nominal 1500 ng/mL): 1437 ng/mL | Mean measured concentration ([2]; 7 months, nominal 15 ng/mL): 14.1 ng/mL | Accuracy vs fresh QCs ([2]; 7 months, nominal 150 ng/mL): 98.9% | Mean measured concentration ([2]; 7 months, nominal 150 ng/mL): 156 ng/mL | Accuracy vs fresh QCs ([2]; 7 months, nominal 1500 ng/mL): 97.5% | Mean measured concentration ([2]; 7 months, nominal 1500 ng/mL): 1443 ng/mL | Mean measured concentration ([2]; 12 months, nominal 15 ng/mL): 15.2 ng/mL | Accuracy vs fresh QCs ([2]; 12 months, nominal 150 ng/mL): 99.0% | Mean measured concentration ([2]; 12 months, nominal 150 ng/mL): 164 ng/mL | Accuracy vs fresh QCs ([2]; 12 months, nominal 1500 ng/mL): 96.6% | Mean measured concentration ([2]; 12 months, nominal 1500 ng/mL): 1583 ng/mL | Accuracy vs fresh QCs ([3]; 37°C, dark, nominal 15 ng/mL): 97.5% | Mean measured concentration ([3]; 37°C, dark, nominal 15 ng/mL): 15.4 ng/mL | Mean measured concentration ([3]; 37°C, dark, nominal 1500 ng/mL): 1527 ng/mL | Accuracy vs fresh QCs [3, 7]: 99.4% | Mean measured concentration [3, 7]: 15.7 ng/mL | Mean measured concentration [3, 8]: 1550 ng/mL | Proposed target Cmin for TDM [4]: 0.2 to 0.21 µg/mL | Mean measured concentration ([5]; nominal 15 ng/mL): 15.1 ng/mL | Accuracy vs fresh QCs ([5]; nominal 1500 ng/mL): 98.8% | Accuracy vs. nominal concentration ([5]; nominal 1500 ng/mL): 98.7% | Mean measured concentration ([5]; nominal 1500 ng/mL): 1480 ng/mL | Accuracy vs fresh QCs ([6]; nominal 15 ng/mL): 95.6% | Mean measured concentration ([6]; nominal 15 ng/mL): 15.9 ng/mL | Accuracy vs fresh QCs ([6]; nominal 1500 ng/mL): 102% | Mean measured concentration ([6]; nominal 1500 ng/mL): 1510 ng/mL

CC(=O)c1c(C)c2cnc(Nc3ccc(N4CCNCC4)cn3)nc2n(C2CCCC2)c1=O [Palbociclib, palbociclib]
Accuracy vs fresh QCs ([1]; nominal 15 ng/mL): 100% | Accuracy vs. nominal concentration ([1]; nominal 15 ng/mL): 112% | Mean measured concentration ([1]; nominal 15 ng/mL): 16.7 ng/mL | Accuracy vs fresh QCs ([1]; nominal 150 ng/mL): 99.0% | Accuracy vs. nominal concentration ([1]; nominal 150 ng/mL): 106% | Mean measured concentration ([1]; nominal 150 ng/mL): 160 ng/mL | Accuracy vs fresh QCs ([1]; nominal 1500 ng/mL): 100% | Mean measured concentration ([1]; nominal 1500 ng/mL): 1473 ng/mL | Accuracy vs fresh QCs ([2]; 3 months, nominal 15 ng/mL): 94.0% | Accuracy vs. nominal concentration ([2]; 3 months, nominal 15 ng/mL): 99.8% | Mean measured concentration ([2]; 3 months, nominal 15 ng/mL): 15.0 ng/mL | Accuracy vs fresh QCs ([2]; 3 months, nominal 150 ng/mL): 92.8% | Accuracy vs. nominal concentration ([2]; 3 months, nominal 150 ng/mL): 102% | Mean measured concentration ([2]; 3 months, nominal 150 ng/mL): 153 ng/mL | Accuracy vs fresh QCs ([2]; 3 months, nominal 1500 ng/mL): 92.8% | Accuracy vs. nominal concentration ([2]; 3 months, nominal 1500 ng/mL): 96.0% | Mean measured concentration ([2]; 3 months, nominal 1500 ng/mL): 1440 ng/mL | Accuracy vs fresh QCs ([2]; 7 months, nominal 15 ng/mL): 92.1% | Accuracy vs. nominal concentration ([2]; 7 months, nominal 15 ng/mL): 101.3% | Mean measured concentration ([2]; 7 months, nominal 15 ng/mL): 15.2 ng/mL | Accuracy vs fresh QCs ([2]; 7 months, nominal 150 ng/mL): 85.7% | Accuracy vs. nominal concentration ([2]; 7 months, nominal 150 ng/mL): 109% | Mean measured concentration ([2]; 7 months, nominal 150 ng/mL): 163 ng/mL | Accuracy vs fresh QCs ([2]; 7 months, nominal 1500 ng/mL): 91.6% | Accuracy vs. nominal concentration ([2]; 7 months, nominal 1500 ng/mL): 92.2% | Mean measured concentration ([2]; 7 months, nominal 1500 ng/mL): 1383 ng/mL | Accuracy vs fresh QCs ([2]; 12 months, nominal 15 ng/mL): 96.4% | Accuracy vs. nominal concentration ([2]; 12 months, nominal 15 ng/mL): 104% | Mean measured concentration ([2]; 12 months, nominal 15 ng/mL): 15.6 ng/mL | Accuracy vs fresh QCs ([2]; 12 months, nominal 150 ng/mL): 95.3% | Accuracy vs. nominal concentration ([2]; 12 months, nominal 150 ng/mL): 105% | Mean measured concentration ([2]; 12 months, nominal 150 ng/mL): 157 ng/mL | Accuracy vs fresh QCs ([2]; 12 months, nominal 1500 ng/mL): 87.0% | Accuracy vs. nominal concentration ([2]; 12 months, nominal 1500 ng/mL): 108% | Mean measured concentration ([2]; 12 months, nominal 1500 ng/mL): 1613 ng/mL | Accuracy vs fresh QCs ([3]; 37°C, dark, nominal 15 ng/mL): 94.8% | Accuracy vs. nominal concentration ([3]; 37°C, dark, nominal 15 ng/mL): 103% | Mean measured concentration ([3]; 37°C, dark, nominal 15 ng/mL): 15.4 ng/mL | Accuracy vs fresh QCs ([3]; 37°C, dark, nominal 1500 ng/mL): 102% | Accuracy vs. nominal concentration ([3]; 37°C, dark, nominal 1500 ng/mL): 99.3% | Mean measured concentration ([3]; 37°C, dark, nominal 1500 ng/mL): 1490 ng/mL | Accuracy vs fresh QCs [3, 7]: 95.6% | Accuracy vs. nominal concentration [3, 7]: 104% | Mean measured concentration [3, 7]: 15.5 ng/mL | Accuracy vs fresh QCs [3, 8]: 102% | Accuracy vs. nominal concentration [3, 8]: 99.6% | Mean measured concentration [3, 8]: 1493 ng/mL | Accuracy vs fresh QCs ([5]; nominal 15 ng/mL): 98.1% | Accuracy vs. nominal concentration ([5]; nominal 15 ng/mL): 99.8% | Mean measured concentration ([5]; nominal 15 ng/mL): 15.0 ng/mL | Accuracy vs fresh QCs ([5]; nominal 1500 ng/mL): 98.7% | Accuracy vs. nominal concentration ([5]; nominal 1500 ng/mL): 96.9% | Mean measured concentration ([5]; nominal 1500 ng/mL): 1453 ng/mL | Accuracy vs fresh QCs ([6]; nominal 15 ng/mL): 99.0% | Accuracy vs. nominal concentration ([6]; nominal 15 ng/mL): 110% | Mean measured concentration ([6]; nominal 15 ng/mL): 16.5 ng/mL | Accuracy vs fresh QCs ([6]; nominal 1500 ng/mL): 100% | Accuracy vs. nominal concentration ([6]; nominal 1500 ng/mL): 98.7% | Mean measured concentration ([6]; nominal 1500 ng/mL): 1480 ng/mL

CN(C)C(=O)c1cc2cnc(Nc3ccc(N4CCNCC4)cn3)nc2n1C1CCCC1 [Ribociclib, ribociclib]
Accuracy vs fresh QCs ([1]; nominal 15 ng/mL): 97.8% | Accuracy vs. nominal concentration ([1]; nominal 15 ng/mL): 110% | Mean measured concentration ([1]; nominal 15 ng/mL): 16.5 ng/mL | Accuracy vs fresh QCs ([1]; nominal 150 ng/mL): 101% | Accuracy vs. nominal concentration ([1]; nominal 150 ng/mL): 107% | Mean measured concentration ([1]; nominal 150 ng/mL): 161 ng/mL | Accuracy vs fresh QCs ([1]; nominal 1500 ng/mL): 101% | Accuracy vs. nominal concentration ([1]; nominal 1500 ng/mL): 100% | Mean measured concentration ([1]; nominal 1500 ng/mL): 1503 ng/mL | Accuracy vs fresh QCs ([2]; 3 months, nominal 15 ng/mL): 106% | Accuracy vs. nominal concentration ([2]; 3 months, nominal 15 ng/mL): 102% | Mean measured concentration ([2]; 3 months, nominal 15 ng/mL): 15.3 ng/mL | Accuracy vs fresh QCs ([2]; 3 months, nominal 150 ng/mL): 105% | Accuracy vs. nominal concentration ([2]; 3 months, nominal 150 ng/mL): 98.7% | Mean measured concentration ([2]; 3 months, nominal 150 ng/mL): 148 ng/mL | Accuracy vs fresh QCs ([2]; 3 months, nominal 1500 ng/mL): 104% | Accuracy vs. nominal concentration ([2]; 3 months, nominal 1500 ng/mL): 94.2% | Mean measured concentration ([2]; 3 months, nominal 1500 ng/mL): 1413 ng/mL | Accuracy vs fresh QCs ([2]; 7 months, nominal 15 ng/mL): 90.3% | Accuracy vs. nominal concentration ([2]; 7 months, nominal 15 ng/mL): 98.4% | Mean measured concentration ([2]; 7 months, nominal 15 ng/mL): 14.8 ng/mL | Accuracy vs fresh QCs ([2]; 7 months, nominal 150 ng/mL): 86.0% | Accuracy vs. nominal concentration ([2]; 7 months, nominal 150 ng/mL): 106% | Mean measured concentration ([2]; 7 months, nominal 150 ng/mL): 160 ng/mL | Accuracy vs fresh QCs ([2]; 7 months, nominal 1500 ng/mL): 88.8% | Accuracy vs. nominal concentration ([2]; 7 months, nominal 1500 ng/mL): 93.6% | Mean measured concentration ([2]; 7 months, nominal 1500 ng/mL): 1403 ng/mL | Accuracy vs fresh QCs ([2]; 12 months, nominal 15 ng/mL): 107% | Accuracy vs. nominal concentration ([2]; 12 months, nominal 15 ng/mL): 105% | Mean measured concentration ([2]; 12 months, nominal 15 ng/mL): 15.7 ng/mL | Accuracy vs fresh QCs ([2]; 12 months, nominal 150 ng/mL): 105% | Accuracy vs. nominal concentration ([2]; 12 months, nominal 150 ng/mL): 108% | Mean measured concentration ([2]; 12 months, nominal 150 ng/mL): 161 ng/mL | Accuracy vs fresh QCs ([2]; 12 months, nominal 1500 ng/mL): 101% | Accuracy vs. nominal concentration ([2]; 12 months, nominal 1500 ng/mL): 108% | Mean measured concentration ([2]; 12 months, nominal 1500 ng/mL): 1613 ng/mL | Accuracy vs fresh QCs ([3]; 37°C, dark, nominal 15 ng/mL): 97.8% | Accuracy vs. nominal concentration ([3]; 37°C, dark, nominal 15 ng/mL): 106% | Mean measured concentration ([3]; 37°C, dark, nominal 15 ng/mL): 15.9 ng/mL | Accuracy vs fresh QCs ([3]; 37°C, dark, nominal 1500 ng/mL): 102% | Accuracy vs. nominal concentration ([3]; 37°C, dark, nominal 1500 ng/mL): 100% | Mean measured concentration ([3]; 37°C, dark, nominal 1500 ng/mL): 1500 ng/mL | Accuracy vs fresh QCs [3, 7]: 98.0% | Accuracy vs. nominal concentration [3, 7]: 106% | Mean measured concentration [3, 7]: 15.9 ng/mL | Accuracy vs fresh QCs [3, 8]: 102% | Accuracy vs. nominal concentration [3, 8]: 100% | Mean measured concentration [3, 8]: 1503 ng/mL | Proposed target Cmin for TDM [4]: 0.711 µg/mL | Accuracy vs fresh QCs ([5]; nominal 15 ng/mL): 98.3% | Accuracy vs. nominal concentration ([5]; nominal 15 ng/mL): 100% | Mean measured concentration ([5]; nominal 15 ng/mL): 15.0 ng/mL | Accuracy vs fresh QCs ([5]; nominal 1500 ng/mL): 97.1% | Accuracy vs. nominal concentration ([5]; nominal 1500 ng/mL): 97.1% | Mean measured concentration ([5]; nominal 1500 ng/mL): 1457 ng/mL | Accuracy vs fresh QCs ([6]; nominal 15 ng/mL): 99.2% | Accuracy vs. nominal concentration ([6]; nominal 15 ng/mL): 112% | Mean measured concentration ([6]; nominal 15 ng/mL): 16.7 ng/mL | Accuracy vs fresh QCs ([6]; nominal 1500 ng/mL): 99.8% | Accuracy vs. nominal concentration ([6]; nominal 1500 ng/mL): 98.7% | Mean measured concentration ([6]; nominal 1500 ng/mL): 1480 ng/mL
